Source: patent publication US11465987B2, “Compounds for treatment of cancer” (ONCTERNAL THERAPEUTICS, INC., priority 2012, dated 2022)
Where two headings read alike, the source gives them in different places.

How the values were obtained:
[1] = tested on: DU 145 human prostate cancer cell line; test: Cytotoxicity (SRB) assay, DU 145; format: cell-based
Text: (§1) Cells were stained with SRB solution.

[2] = tested on: PPC-1 human prostate cancer cell line; test: Cytotoxicity (SRB) assay, PPC-1; format: cell-based; settings: Homo sapiens, PPC-1, Table 6A; read-out: IC50 ± SEM, PPC-1 (converted)
Text: as §1

[3] = tested on: PC-3 human prostate cancer cell line; test: cells; settings: Homo sapiens
Text: as §1

[4] = tested on: melanoma and prostate cancer cell lines; test: Antiproliferative activity summarised over the cell line panel (range or average); format: cell-based; settings: for antiproliferative activity in words: Tables 1-3
[5] = Homo sapiens, DU-145, Table 6A, read-out: IC50 ± SEM, DU 145
[6] = read-out: IC50 ± SEM, PC-3, Table 6A
[7] = Tables 11-13, read-out: IC50 (average of all seven cell lines)
[8] = Tables 1-2, read-out: IC50 (range or bound over tested cell lines)

| IC50 [3, 6] [µM] | Compound | IC50 [1, 5] [µM] | IC50 [2] [µM] | further results |
| --- | --- | --- | --- | --- |
| > 2 | O=C(c1cc(O)c(O)c(O)c1)c1csc(-c2ccccc2)n1 [compound 33] | > 2 | > 2 |  |
| ~10 | COc1cc(C(=O)c2csc(-c3ccccc3)n2)cc(OC)c1OCc1ccccc1 [compound 9] | ~10 | ~10 |  |
|  | COc1cc(C(=O)c2cn(S(=O)(=O)c3ccccc3)c(-c3ccccc3C(F)(F)F)n2)cc(OC)c1OC [11ia, (1-(phenylsulfonyl)-2-(2-(trifluoromethyl)phenyl)-1H-imidazol-4-yl)(3,4,5-trimethoxyphenyl)methanone] |  |  | IC50 [4, 7]: 1 to 50 µM; IC50 ([3]; read-out: IC50 ± SEM, PC-3, Table 13): > 10 µM |
|  | COc1cc(C(=O)N2CCC(c3ccccc3)CC2)cc(OC)c1OC [1g, (4-Phenylpiperidin-1-yl)(3,4,5-trimethoxyphenyl)methanone] |  |  | IC50 [4, 8]: > 20 µM |
| > 20 | O=C(c1ccc2c(c1)OCO2)N1CCC(c2ccccc2)CC1 [compound 19] | > 20 | > 20 |  |
|  | COc1cc(C(=O)[C@H]2COC(c3ccccc3)=N2)cc(OC)c1OC [35a, (2R)-(2-Phenyl-4,5-dihydro-oxazol-4-yl)-(3,4,5-trimethoxy-phenyl)-methanone] |  |  | antiproliferative activity in words [4]: hundreds of nanomolar range |
|  | COc1cc(C(=O)c2coc(-c3ccccc3)n2)cc(OC)c1OC [36a, (2-Phenyl-oxazol-4-yl)-(3,4,5-trimethoxy-phenyl)-methanone] |  |  | antiproliferative activity in words [4]: hundreds of nanomolar range |
| > 10 | O=C(c1ccc(F)cc1)c1csc(-c2ccccc2)n1 [compound 12] | > 10 | > 10 |  |
| > 20 | O=C(c1ccc(F)cc1)N1CCC(c2ccccc2)CC1 [compound 22] | > 20 | > 20 |  |
|  | COc1cc(C(=O)c2cnc(-c3ccccc3)s2)cc(OC)c1OC [1e, (2-Phenylthiazol-5-yl)(3,4,5-trimethoxyphenyl)methanone] |  |  | IC50 [4, 8]: > 10 µM |
|  | COc1cc(-c2nc(C(=O)c3ccc(F)cc3)c[nH]2)cc(OC)c1OC [12eb] |  |  | IC50 [4, 7]: 1 to 50 µM |
| > 10 | COc1cc(-c2nc(C(=O)c3ccc(F)cc3)cn2C(=O)c2ccc(F)cc2)cc(OC)c1OC [compound 30] | > 10 | > 10 |  |
|  | COc1cc(C(=O)c2cccc(-c3ccccc3)c2)cc(OC)c1OC [1a, Biphenyl-3-yl(3,4,5-trimethoxyphenyl)methanone] |  |  | antiproliferative activity in words [4]: hundreds of nanomolar range |
| > 10 | Cc1ccc(-c2nc(C(=O)c3ccc(F)cc3)cs2)cc1 [compound 11] | > 10 | > 10 |  |
| > 10 | O=C(c1csc(-c2cc(F)c(F)c(F)c2)n1)c1c(F)c(F)c(F)c(F)c1F [compound 16] | > 10 | > 10 |  |
|  | 4-Methoxyphenyl(4-(3,4,5-trimethoxyphenyl)-1H-imidazol-2-yl)methanone and 4-methoxyphenyl(5-(3,4,5-trimethoxyphenyl)-1H-imidazol-2-yl)methanone [70y] |  |  | IC50 ([1]; Table 13B, read-out: inhibitory effects, DU145): > 50 µM |
| > 10 | O=C(c1ccc(OC(F)(F)F)cc1)c1csc(-c2ccccc2)n1 [compound 13] | > 10 | > 10 |  |
| > 10 | COc1cc(C(=O)c2csc(-c3ccccc3)n2)cc(OC)c1O [compound 34] | > 10 | > 10 |  |
|  | COc1cc(C(=O)c2cc(-c3ccccc3)on2)cc(OC)c1OC [1i, (5-Phenylisoxazol-3-yl)(3,4,5-trimethoxyphenyl)methanone] |  |  | IC50 [4, 8]: > 10 µM |
| ~10 | COc1cc(C(=O)c2csc(-c3ccccc3)n2)cc(OC)c1OC(=O)C(F)(F)F [compound 23] | ~10 | ~10 |  |
| > 10 | O=C(c1ccc(F)cc1)c1csc(-c2ccc(F)cc2)n1 [compound 14] | > 10 | > 10 |  |
| ~10 | COc1cc(C(=O)c2csc(-c3ccccc3)n2)cc(OC)c1OC(=O)CCl [compound 18] | ~10 | ~10 |  |
